Experimental data from patent US20130259884A1, “PEPTIDES” ([…] SL, priority 2010, published 2013).
Where a SMILES comes first, the peptide text is derived from it.

Test: Water solubility of peptides when preparing stock solutions
Format: physicochemical
Conditions: stock solution in sterile distilled water or 100% DMSO; read-out: solubility of peptide (water soluble or water insoluble, dissolved in DMSO)
Description: For challenge, peptides were administered as follows: • Individual peptides (soluble). Individual water soluble peptides were dissolved as 10, 5 or 2.5 mg/ml stock solutions in sterile distilled water. Before use, each peptide was diluted in water to 2 mg/ml and 10 μl of this 2 mg/ml mix was added to 990 μl of media. Then 100 μl of this peptide/media mix was added to 100 μl of media containing 350,000 PBMC in an ELISPOT anti-IL-4 coated cell culture plate well for a final peptide concentration of 10 μg/ml. Identically diluted media only was added to the cells and used for the no peptide media control wells (media only). • Individual peptides (DMSO). Individual water insoluble peptides were dissolved in 100% DMSO to a stock concentration of 50 mg/ml. Before use each peptide was diluted in water to 2 mg/ml and then 10 μl of the 2 mg/ml mix was added to 990 μl of cell-culture media. Then 100 μl of this peptide/media mix was added to 100 μl of media containing 350,000 PBMC in an ELISPOT anti-IL-4 coated cell culture plate well for a final peptide concentration of 10 μg/ml. Identically diluted media only was added to the cells and used for the no peptide media control wells (media only). • A combination preparation containing Alt a 1 soluble peptides (33.2, 34.3, 35.4, 35.5, 37.3.1, 37.4.1, L6-5.01, L10-1.01, L10-2.01, L10-3), called Alt a 1 Sol. Each peptide was diluted from water stock to 2 mg/ml in sterile distilled water. Then 10 μl of each peptide required for the combined preparation was mixed and brought up to 1 ml in media. Then 100 μl of this peptide/media mix was added to 100 μl of media containing 350,000 PBMC in an ELISPOT anti-IL-4 coated cell culture plate well for a final concentration of each peptide of 10 μg/ml. Identically diluted media only was used for the no peptide control wells (media only). • A combination preparation containing Alt a 1 DMSO peptides (32.2.1, 38.2.1, 35.2, 35.3, L6-2, L6-3, L6-4, 38.3, 37.2), called Alt a 1 DMSO. Each peptide was diluted from DMSO stock to 2 mg/ml in sterile distilled water. Then 10 μl of each peptide required for the combined preparation was mixed and brought up to 1 ml in media. Then 100 μl of this peptide/media mix is added to 100 μl of media containing 350,000 PBMC in an ELISPOT anti-IL-4 coated cell culture plate well for a final concentration of each peptide of 10 μg/ml. Identically diluted media only was used for the no peptide control wells (media only). • A combination preparation containing non-Alt a 1 soluble peptides (40.2, 41.2, 43.2, 44.2, 46.2, 47.2.1, 56.2, 57.2.1, 60.2, 62.2.1, 67.2, 71.3), called Alt a Other Sol. Each peptide was diluted from water stock to 2 mg/ml in sterile distilled water. Then 10 μl of each peptide required for the combined preparation was mixed and brought up to 1 ml in media, Then 100 μl of this peptide/media mix was added to 100 μl of media containing 350,000 PBMC in an ELISPOT anti-IL-4 coated cell culture plate well for a final concentration of each peptide at 10 μg/ml. Identically diluted media only was used for the no peptide control wells (media only). • A combination preparation containing non-Alt a 1 DMSO peptides (39.2, 42.2, 45.2, 48.2.1, 50.2, 51.2.1, 61.2.1, 66.3.1, 68.2.1, 70.2, 71.2, 72.2), called Alt a Other DMSO. Each peptide was diluted from DMSO stock to 2 mg/ml in sterile distilled water. Then 10 ul of each peptide required for the combined preparation was mixed and brought up to 1 ml in media, Then 100 μl of this peptide/media mix was added to 100 μl of media containing 350,000 PBMC in an ELISPOT anti-IL-4 coated cell culture plate well for a final concentration of each peptide at 10 μg/ml. Identically diluted media only was used for the no peptide control wells (media only).

Going from `CC[C@H](C)[C@H](NC(=O)[C@@H](NC(=O)[C@@H](NC(=O)[C@H](Cc1ccccc1)NC(=O)[C@H](CCC(N)=O)NC(=O)[C@@H](N)CC(C)C)[C@@H](C)O)[C@@H](C)O)C(=O)N[C@@H](C)C(=O)N[C@@H](CO)C(=O)N[C@@H](CC(C)C)C(=O)N[C@@H](Cc1ccccc1)C(=O)N[C@@H](C)C(=O)N[C@@H](C)C(=O)N[C@@H](C)C(=O)NCC(=O)N[C@@H](CC(C)C)C(=O)O` [Peptide 32.2.1, LQFTTIASLFAAAGL] (H-LQFTTIASLFAAAGL-OH) to `CC[C@H](C)[C@H](NC(=O)[C@H](CC(N)=O)NC(=O)[C@H](Cc1ccccc1)NC(=O)CN)C(=O)N[C@@H](CCCCN)C(=O)N[C@@H](C)C(=O)N[C@H](C(=O)N[C@@H](CC(N)=O)C(=O)NCC(=O)NCC(=O)N[C@H](C(=O)N[C@@H](CC(C)C)C(=O)N[C@@H](CC(=O)O)C(=O)N[C@@H](Cc1ccccc1)C(=O)N[C@H](C(=O)O)[C@@H](C)O)[C@@H](C)O)[C@@H](C)O` [Peptide 35.5, GFNIKATNGGTLDFT] (H-GFNIKATNGGTLDFT-OH), the solubility rises from < 2.5 mg/mL to > 2.5 mg/mL.

First: CC(C)C[C@H](NC(=O)CNC(=O)[C@H](C)NC(=O)[C@H](C)N)C(=O)N[C@@H](C)C(=O)N[C@@H](C)C(=O)N[C@@H](C)C(=O)N[C@@H](C)C(=O)N1CCC[C@H]1C(=O)N[C@@H](CC(C)C)C(=O)N[C@@H](CCC(=O)O)C(=O)N[C@@H](CO)C(=O)N[C@@H](CCCNC(=N)N)C(=O)N[C@@H](CCC(N)=O)C(=O)N[C@@H](CC(=O)O)C(=O)O [Peptide 33.2, AAGLAAAAPLESRQD] (H-AAGLAAAAPLESRQD-OH)
Second: CC[C@H](C)[C@H](NC(=O)[C@H](Cc1ccc(O)cc1)NC(=O)[C@H](C)NC(=O)[C@H](CC(=O)O)NC(=O)[C@H](C)NC(=O)[C@@H](N)C(C)C)C(=O)N[C@H](C(=O)N[C@@H](CC(C)C)C(=O)N[C@H](C(=O)N[C@H](C(=O)N[C@@H](CC(C)C)C(=O)N1CCC[C@H]1C(=O)N[C@@H](CCCCN)C(=O)N[C@@H](CO)C(=O)N[C@@H](CO)C(=O)O)[C@@H](C)O)C(C)C)[C@@H](C)O [Peptide 38.3, VADAYITLVTLPKSS]
The solubility of the first is higher: > 2.5 mg/mL for the first, < 2.5 mg/mL for the second.

First: CC[C@H](C)[C@H](NC(=O)[C@H](CCCCN)NC(=O)[C@H](Cc1c[nH]c2ccccc12)NC(=O)[C@@H](NC(=O)[C@H](Cc1ccc(O)cc1)NC(=O)[C@@H](N)CC(=O)O)C(C)C)C(=O)N[C@@H](CO)C(=O)N[C@@H](CCC(=O)O)C(=O)N[C@@H](Cc1ccccc1)C(=O)N[C@@H](Cc1ccc(O)cc1)C(=O)NCC(=O)N[C@@H](CCCNC(=N)N)C(=O)N[C@@H](CCCCN)C(=O)N1CCC[C@H]1C(=O)N[C@@H](CCC(=O)O)C(=O)O [Peptide 34.3, DYVWKISEFYGRKPE] (H-DYVWKISEFYGRKPE-OH)
Second: CC[C@H](C)[C@H](NC(=O)[C@H](CC(N)=O)NC(=O)[C@H](Cc1ccccc1)NC(=O)CNC(=O)[C@H](CC(C)C)NC(=O)[C@H](CO)NC(=O)[C@H](CC(N)=O)NC(=O)[C@H](Cc1ccc(O)cc1)NC(=O)[C@H](Cc1ccc(O)cc1)NC(=O)[C@@H](NC(=O)CNC(=O)[C@@H](N)CCC(=O)O)[C@@H](C)O)C(=O)N[C@@H](CCCCN)C(=O)N[C@@H](C)C(=O)N[C@H](C(=O)O)[C@@H](C)O [Peptide 35.2, EGTYYNSLGFNIKAT] (H-EGTYYNSLGFNIKAT-OH)
The solubility of the first is higher: > 2.5 mg/mL for the first, < 2.5 mg/mL for the second.

Compared with `CC[C@H](C)[C@H](NC(=O)[C@H](CC(N)=O)NC(=O)[C@H](Cc1ccccc1)NC(=O)CNC(=O)[C@H](CC(C)C)NC(=O)[C@H](CO)NC(=O)[C@H](CC(N)=O)NC(=O)[C@@H](N)Cc1ccc(O)cc1)C(=O)N[C@@H](CCCCN)C(=O)N[C@@H](C)C(=O)N[C@H](C(=O)N[C@@H](CC(N)=O)C(=O)NCC(=O)NCC(=O)N[C@H](C(=O)O)[C@@H](C)O)[C@@H](C)O` [Peptide 35.3, YNSLGFNIKATNGGT] (H-YNSLGFNIKATNGGT-OH), `CC[C@H](C)[C@H](NC(=O)[C@H](CC(N)=O)NC(=O)[C@H](Cc1ccccc1)NC(=O)CNC(=O)[C@H](CC(C)C)NC(=O)[C@@H](N)CO)C(=O)N[C@@H](CCCCN)C(=O)N[C@@H](C)C(=O)N[C@H](C(=O)N[C@@H](CC(N)=O)C(=O)NCC(=O)NCC(=O)N[C@H](C(=O)N[C@@H](CC(C)C)C(=O)N[C@@H](CC(=O)O)C(=O)O)[C@@H](C)O)[C@@H](C)O` [Peptide 35.4, SLGFNIKATNGGTLD] (H-SLGFNIKATNGGTLD-OH) is higher in solubility: < 2.5 mg/mL for the first, > 2.5 mg/mL for the second.

First: CC[C@H](C)[C@H](NC(=O)[C@H](CC(=O)O)NC(=O)[C@H](CC(=O)O)NC(=O)[C@@H](N)CO)C(=O)N[C@H](C(=O)N[C@@H](Cc1ccc(O)cc1)C(=O)N[C@H](C(=O)N[C@@H](C)C(=O)N[C@H](C(=O)N[C@@H](C)C(=O)N[C@H](C(=O)N[C@@H](CC(C)C)C(=O)N1CCC[C@H]1C(=O)N[C@@H](CC(N)=O)C(=O)N[C@@H](Cc1ccc(O)cc1)C(=O)O)[C@@H](C)O)[C@@H](C)O)C(C)C)[C@@H](C)O [Peptide 37.2, SDDITYVATATLPNY] (H-SDDITYVATATLPNY-OH)
Second: CC[C@H](C)[C@H](NC(=O)[C@@H](N)CC(=O)O)C(=O)N[C@H](C(=O)N[C@@H](Cc1ccc(O)cc1)C(=O)N[C@H](C(=O)N[C@@H](C)C(=O)N[C@H](C(=O)N[C@@H](C)C(=O)N[C@H](C(=O)N[C@@H](CC(C)C)C(=O)N1CCC[C@H]1C(=O)N[C@@H](CC(N)=O)C(=O)N[C@@H](Cc1ccc(O)cc1)C(=O)N[C@H](C(=O)N[C@@H](CCCNC(=N)N)C(=O)O)C(C)C)[C@@H](C)O)[C@@H](C)O)C(C)C)[C@@H](C)O [Peptide 37.3.1, DITYVATATLPNYVR] (H-DITYVATATLPNYVR-OH)
The solubility of the first is lower: < 2.5 mg/mL for the first, > 2.5 mg/mL for the second.

Compared with `CC(C)C[C@H](NC(=O)[C@@H](NC(=O)[C@H](C)NC(=O)[C@@H](N)[C@@H](C)O)[C@@H](C)O)C(=O)N1CCC[C@H]1C(=O)N[C@@H](CC(N)=O)C(=O)N[C@@H](Cc1ccc(O)cc1)C(=O)N[C@H](C(=O)N[C@@H](CCCNC(=N)N)C(=O)N[C@@H](C)C(=O)NCC(=O)NCC(=O)N[C@@H](CC(N)=O)C(=O)NCC(=O)N1CCC[C@H]1C(=O)O)C(C)C` [Peptide 37.4.1, TATLPNYVRAGGNGP] (H-TATLPNYVRAGGNGP-OH), `CC[C@H](C)[C@H](NC(=O)[C@H](Cc1ccc(O)cc1)NC(=O)[C@H](C)NC(=O)[C@H](CC(=O)O)NC(=O)[C@H](C)NC(=O)[C@@H](NC(=O)CNC(=O)[C@H](CCC(N)=O)NC(=O)[C@@H](NC(=O)[C@@H](NC(=O)[C@H](Cc1ccccc1)NC(=O)[C@H](CC(=O)O)NC(=O)[C@H](CCCCN)NC(=O)[C@@H]1CCCN1)C(C)C)C(C)C)C(C)C)C(=O)N[C@H](C(=O)O)[C@@H](C)O` [Peptide 38.2.1, PKDFVVQGVADAYIT] (H-PKDFVVQGVADAYIT-OH) is lower in solubility: > 2.5 mg/mL for the first, < 2.5 mg/mL for the second.

For `CC(C)C[C@H](NC(=O)[C@H](CCCNC(=N)N)NC(=O)[C@H](CC(N)=O)NC(=O)[C@@H](N)CC(=O)O)C(=O)N[C@H](C(=O)N[C@@H](CC(N)=O)C(=O)N[C@@H](Cc1c[nH]cn1)C(=O)N[C@@H](Cc1ccccc1)C(=O)N[C@H](C(=O)N[C@@H](CC(N)=O)C(=O)N[C@@H](CCC(=O)O)C(=O)N[C@@H](Cc1ccccc1)C(=O)N[C@@H](CCCCN)C(=O)N[C@@H](CCCNC(=N)N)C(=O)N[C@@H](CCCCN)C(=O)O)[C@@H](C)O)C(C)C` [Peptide 40.2, DNRLVNHFTNEFKRK] (H-DNRLVNHFTNEFKRK-OH; N-terminus and C-terminus assumed), the solubility was > 2.5 mg/mL.
